Results: patent publication US20080026003A1, “Methods for inhibiting pain” (The General Hospital Corporation, priority 2000, published 2008)

Experiments:
[1] = tested on: CFA inflamed hindpaw of rats; assay: Mechanical (von Frey) and thermal (radiant heat) sensitivity after Cox-2 or caspase-1 inhibitor
Method: Thermal sensitivity was assessed by applying a beam of radiant heat and recording the paw withdrawal latency (Decosterd et al., supra).

[2] = tested on: CFA-induced inflammatory pain in rats; conditions: non-inflamed animals; Ji et al., 1999; cited from earlier work
[3] = tested on: Cox-2 mRNA; assay: Cox-2 mRNA in lumbar spinal cord after intraplantar CFA (RNase protection assay); type: in vivo, rat
Method: The extent of Cox-2 induction in the central nervous system following unilateral hindpaw inflammation evoked by complete Freund's adjuvant (CFA) was investigated. CFA (100 μl, Sigma) was injected into the left rat hindpaw of rats anaesthetized with 2% halothane. The level of Cox-2 mRNA was measured using RNase protection assays which were performed on total RNA extracts from spinal cord samples using the RPA III kit (Ambion). […] At least two assays were used for each observation, and the fold change in Cox-2 mRNA levels was determined with respect to a β-actin loading control.
To further support the role of central IL-1β in induction of Cox-2, the effect of inhibiting IL-1β activity was determined.

[4] = tested on: Cox-2 mRNA; assay: Cox-2 mRNA in isolated spinal cord slice in vitro; type: cell-based, rat; conditions: 200 ng/ml; in vitro spinal cord slice
Method: Two mechanisms may contribute to central Cox-2 induction in response to peripheral inflammation: 1) sensory inflow from nerve fibers innervating the inflamed hindpaw or 2) circulating pro-inflammatory cytokines. To determine whether primary sensory neuron activity increases central Cox-2, an isolated adult rat spinal cord slice preparation with an attached dorsal root was analyzed (FIG. 5A). To prepare this spinal cord slice, the lumbar spinal cord from an adult rat under urethane anesthesia was removed and immersed in cold Kreb's solution. A 700-μm-thick transverse slice with attached L4 dorsal root (15-20 mm) was prepared and perfused with Kreb's solution saturated with 95% O2 and 5% CO2 at 36-37° C. (Baba et al., J Neurosci 19:859, 1999). The L4 dorsal root was electrically stimulated for 30 minutes using a suction electrode at 20 μA (0.05 ms, 50 Hz) for Aβ-fibers, 100 μA (0.05 ms, 50 Hz) for […] 1000 μA (0.5 ms, 50 Hz) for C-fibers. The slices were perfused with Kreb's solution for two hours before electrical stimulation, and for three hours after stimulation.

[5] = tested on: p-p38 and VR1; assay: p-p38 and VR1 in DRG after intrathecal NGF; type: in vivo, rat; conditions: intrathecal 2 μg twice a day for three days
Method: L4 and L5 DRGs and L4-L5 spinal cord segments were dissected. DRG and transverse spinal cord sections (20 μm) were cut and processed for immunohistochemistry using the previously described ABC method (Ji et al., Nat. Neurosci. 2:1114-1119, 1999), with polyclonal anti-p38 and phospho-p38 (1:300, New England BioLabs) and polyclonal anti-VR1 antibodies (1:5000, Kindly provided by Glaxso Welcome and Dr. David Julius). For colocalization studies, immunofluorescence was performed to analyze the double staining between antibodies reactive with phosphop38 (anti-rabbit, 1:300) and VR1 (anti-guinea pig, 1:3000, Neuromics) or P2X3 (anti-guinea pig, 1:3000, Neuromics) or NeuN (anti-mouse, 1:3000, Chemicon). This double immunofluorescence was performed as previously described (Ji et al., 2001, supra). Briefly, DRG and spinal sections were incubated with a mixture of two primary antibodies overnight at 4° C. and then incubated with a mixture of FITC- and CY3-congugated secondary antibodies (1:300, Jackson immunolab) for two hours at room temperature. A Tyramide Signal Amplification (TSA, NEN) kit was used to perform double staining with two polyclonal rabbit antibodies (phospho p38 and TrkA) as previously reported (Amaya et al., Mol. Cell Neurosci 15:331-342, 2000). The images of immunostained DRG sections were captured with a CCD camera. The intensity of immunostaining was measured with computer-assisted software (IP lab), and the number of immunoreactive neuronal profiles was counted in a blinded fashion. […] Instead, the results provide a way to evaluate differences in staining levels between control and treated animals. To prevent variations due to experimental conditions, the control and treated DRG sections were mounted on the same slides and processed under the same conditions. […] As previously reported (Ji et al., 1999, supra), every fifth section was picked from a series of consecutive DRG sections (20 μm), and four sections were included for each DRG. The percentage of immnunoreactive neuronal profiles=(number of positive stained neuronal profiles/number of total neuronal profiles)×100.
After CFA-induced inflammation, NGF is produced in the inflamed paw tissue and is retrogradely transported to the cell body of DRG neurons. NGF is critical for gene expression in DRG neurons and plays a major role in inflammatory pain (Lindsay et al., Nature 337: 362-364, 1989; and Woolf et al., Neuroscience 62:327-331, 1994). […] To determine whether NGF is required for the inflammation-induced activation of p38 and upregulation of VR1, NGF antiserum (i.p., 5 μl/g body weight, 84 mg/ml) was injected to neutralize endogenous NGF. […] Intrathecal injection of NGF (2 μg in 10 μl, twice a day for three days, Boeringer) increased both p-p38 levels and VR1 levels in DRG neurons. […]

[6] = tested on: p38 and ERK; assay: MAP kinase phosphorylation in primary DRG neuron cultures; type: cell-based, rat; conditions: culture
Method: To investigate the intracellular signaling pathway that leads to the increase in Cox-2 mRNA in the DRG neurons following treatment with IL-1β, the activation of the NFκ-B transcription factor and members of the MAP kinase family in primary DRG neurons was studied. […] Phosphorylated p38 and ERK were visualized by standard Western blot analysis and immunohistochemistry 30 minutes after administration of 10 ng/ml IL-1β to the culture medium (FIG. 12).
After CFA-induced inflammation, NGF is produced in the inflamed paw tissue and is retrogradely transported to the cell body of DRG neurons. NGF is critical for gene expression in DRG neurons and plays a major role in inflammatory pain (Lindsay et al., Nature 337: 362-364, 1989; and Woolf et al., Neuroscience 62:327-331, 1994). […] To determine whether NGF is required for the inflammation-induced activation of p38 and upregulation of VR1, NGF antiserum (i.p., 5 μl/g body weight, 84 mg/ml) was injected to neutralize endogenous NGF. […] Intrathecal injection of NGF (2 μg in 10 μl, twice a day for three days, Boeringer) increased both p-p38 levels and VR1 levels in DRG neurons. […] To test whether NGF acts via p38 to upregulate VR1, the p38 inhibitor SB203580 (1 μg) was co-administrated with NGF (twice a day for three days).

[7] = tested on: PGE2; assay: PGE2 levels in cerebrospinal fluid after CFA inflammation (enzyme-immunoassay); type: in vivo, rat; conditions: for decrease of PGE2 levels in the cerebrospinal fluid: intrathecal
[8] = intrathecal 30 μg, 48 hours after CFA-induced inflammation

Question: For `CS(=O)(=O)Nc1ccc([N+](=O)[O-])cc1OC1CCCCC1` [NS398], which “reduction of mechanical hyperalgesia” value [1, 8] is on record?
Answer: 4.2 fold

Question: And the thermal hyperalgesia [1, 8]?
Answer: significantly reduced

Question: And the “mechanical or thermal pain sensitivity in naive rats” value ([1]; naive rats)?
Answer: did not alter

Question: Which basal pain sensitivity [2] does the source give for `COc1cccc(-c2cc(=O)c3ccccc3o2)c1N` [PD98059] here?
Answer: no significant change

Question: With “IL-1ra: recombinant IL-1β receptor antagonist (IL-1ra)” as the molecule, how does the “reduction of Cox-2 mRNA levels” value ([3]; intrathecal 6 μg 30 minutes prior to CFA injection, six hours post-inflammation) read?
Answer: 75%

Question: What about the “activity-evoked Cox-2 mRNA induction” value [4] of the same molecule?
Answer: did not affect

Question: For “NGF: nerve growth factor, a known pain mediator, injected intrathecally”, which “VR1 levels in DRG neurons” value [5] is on record?
Answer: increases

Question: What about the “p-p38 levels in DRG neurons” value [5] of the same molecule?
Answer: increases

Question: And the “p38 activation in adult primary DRG neurons grown in culture” value [6]?
Answer: induced

Question: For acetyl-Tyr-Val-Ala-Asp-CHO [YVAD], which “block of the induction of spinal Cox-2 mRNA” value ([3]; 30 minute intrathecal pretreatment, 1 nmole (0.5 μg), six hours after peripheral inflammation) is on record?
Answer: 65%

Question: And the “reduction of the levels of central PGE2” value ([7]; intrathecal pretreatment 1 nmole, 12 and 24 hours post-inflammation)?
Answer: 50%

Question: What about the “decrease of PGE2 levels in the cerebrospinal fluid” value ([7]; 12 hours post inflammation) of the same molecule?
Answer: 50%

Question: What about the “decrease of PGE2 levels in the cerebrospinal fluid” value ([7]; 24 hours post-inflammation) of the same molecule?
Answer: 70%

Question: And the normalizing mechanical sensitivity ([1]; intrathecal 1 nmol, CFA inflammation)?
Answer: 12 fold

Question: What about the “thermal withdrawal latency of the CFA inflamed hindpaw” value ([1]; intrathecal 1 nmol, compared with vehicle) of the same molecule?
Answer: did not significantly affect

Question: What about the “mechanical threshold of the CFA inflamed hindpaw” value ([1]; intrathecal 1 nmol, compared with vehicle, p<0.05) of the same molecule?
Answer: increased
